According to patent US10526327B2, “Histone demethylase inhibitors” (CELGENE QUANTICEL RESEARCH, INC., priority 2013, dated 2020):

What was measured:
[1] = target: T1, JMJD2C (Homo sapiens, UniProt Q9H3R0); assay: JMJD2C in vitro enzyme inhibition assay (TR-FRET); format: biochemical
T1 construct: purchased BPS Bioscience 50105
T1 sequence (Q9H3R0 2-372): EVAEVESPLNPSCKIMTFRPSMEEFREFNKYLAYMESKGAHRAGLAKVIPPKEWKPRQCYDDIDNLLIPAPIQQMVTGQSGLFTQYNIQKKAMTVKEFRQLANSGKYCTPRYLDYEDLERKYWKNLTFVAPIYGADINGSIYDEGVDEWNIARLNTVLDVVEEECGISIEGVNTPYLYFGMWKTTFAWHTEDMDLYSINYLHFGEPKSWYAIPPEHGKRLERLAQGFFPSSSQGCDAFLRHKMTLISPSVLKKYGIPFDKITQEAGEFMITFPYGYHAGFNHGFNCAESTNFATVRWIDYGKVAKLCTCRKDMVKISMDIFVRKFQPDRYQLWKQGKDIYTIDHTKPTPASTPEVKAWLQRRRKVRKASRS
In short: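 Baculovirus-expressed human JMJD2C (AA 2-372) at 0.3 nM demethylated 300 nM biotin-H3K9me3 peptide with 2 μM alpha-ketoglutarate in HEPES pH 7.3 containing ascorbate and Fe(II), 30 min at room temperature. EDTA-stopped product was read by TR-FRET with Eu-anti-H3K9me2 and streptavidin-APC; 665/615 ratios from 11-point dilutions gave IC50.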

[2] = target: T2, Jarid1B (Homo sapiens, UniProt Q9UGL1); assay: Jarid1B in vitro enzyme inhibition assay (TR-FRET); format: biochemical
T2 construct: purchased BPS Bioscience or custom made by MolecularThroughput 50121
T2 sequence (Q9UGL1 2-751): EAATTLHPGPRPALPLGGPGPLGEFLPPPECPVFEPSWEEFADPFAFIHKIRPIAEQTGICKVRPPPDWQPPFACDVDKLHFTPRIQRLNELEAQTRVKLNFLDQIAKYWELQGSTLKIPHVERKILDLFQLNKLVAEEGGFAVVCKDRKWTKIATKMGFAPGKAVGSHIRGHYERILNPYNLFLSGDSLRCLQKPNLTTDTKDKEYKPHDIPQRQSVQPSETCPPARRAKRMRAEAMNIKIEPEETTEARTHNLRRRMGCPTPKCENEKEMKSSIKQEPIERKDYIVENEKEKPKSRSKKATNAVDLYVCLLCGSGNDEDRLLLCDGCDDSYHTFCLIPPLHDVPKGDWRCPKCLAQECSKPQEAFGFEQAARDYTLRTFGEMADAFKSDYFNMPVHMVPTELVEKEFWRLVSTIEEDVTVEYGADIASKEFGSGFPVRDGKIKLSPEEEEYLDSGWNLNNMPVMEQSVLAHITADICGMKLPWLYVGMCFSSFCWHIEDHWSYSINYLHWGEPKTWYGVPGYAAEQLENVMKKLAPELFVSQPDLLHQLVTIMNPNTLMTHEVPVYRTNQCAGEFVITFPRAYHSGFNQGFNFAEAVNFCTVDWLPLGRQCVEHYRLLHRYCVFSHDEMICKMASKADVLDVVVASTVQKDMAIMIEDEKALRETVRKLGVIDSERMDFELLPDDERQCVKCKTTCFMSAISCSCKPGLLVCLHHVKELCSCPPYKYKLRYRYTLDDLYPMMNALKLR
In short: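 Jarid1B (AA 2-751, baculovirus-expressed) at 0.8 nM with 300 nM biotin-H3K4me3 peptide and 2 μM α-ketoglutarate in HEPES pH 7.3 with ascorbate and Fe(II), 30 min at room temperature. Stopped with EDTA; H3K4me1-2 product detected by TR-FRET (665/615 ratio) and IC50 fitted from 11-point dilutions.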

IC50 [1] [µM] | IC50 [2] [µM] | Compound
0.1 to 1 | 0.1 to 1 | CC(C)Oc1nc(O)c2ccncc2n1 [Example 1, 2-propan-2-yloxy-3H-pyrido[3,4-d]pyrimidin-4-one]
0.1 to 1 | ≤ 0.1 | CCOc1nc(O)c2ccncc2n1 [Example 2, 2-ethoxypyrido[3,4-d]pyrimidin-4-ol]
0.1 to 1 | 0.1 to 1 | Oc1nc(OCCOCC(F)(F)F)nc2cnccc12 [Example 23, 2-[2-(2,2,2-trifluoroethoxy)ethoxy]pyrido[3,4-d]pyrimidin-4-ol]
0.1 to 1 | 0.1 to 1 | CC(CO)COc1nc(O)c2ccncc2n1 (stereo not drawn) [Example 25, 2-(3-hydroxy-2-methylpropoxy)pyrido[3,4-d]pyrimidin-4-ol]
0.1 to 1 | 1 to 10 | Oc1nc(OCC2CCCO2)nc2cnccc12 (stereo not drawn) [Example 26, 2-(oxolan-2-ylmethoxy)pyrido[3,4-d]pyrimidin-4-ol]
0.1 to 1 | 0.1 to 1 | Oc1nc(OCC2CCOC2)nc2cnccc12 (stereo not drawn) [Example 27, 2-(oxolan-3-ylmethoxy)pyrido[3,4-d]pyrimidin-4-ol]
0.1 to 1 | 0.1 to 1 | CC(=O)N(C)CCOc1nc(O)c2ccncc2n1 [Example 28, N-[2-(4-hydroxypyrido[3,4-d]pyrimidin-2-yl)oxyethyl]-N-methylacetamide]
0.1 to 1 | 0.1 to 1 | CC(C)OCCOc1nc(O)c2ccncc2n1 [Example 29, 2-(2-propan-2-yloxyethoxy)pyrido[3,4-d]pyrimidin-4-ol]
0.1 to 1 | 0.1 to 1 | Oc1nc(OCCOCc2ccccc2)nc2cnccc12 [Example 30, 2-(2-phenylmethoxyethoxy)pyrido[3,4-d]pyrimidin-4-ol]
0.1 to 1 | ≤ 0.1 | O=C(NCCOc1nc(O)c2ccncc2n1)c1ccccc1 [Example 31, N-[2-(4-hydroxypyrido[3,4-d]pyrimidin-2-yl)oxyethyl]benzamide]
0.1 to 1 | 0.1 to 1 | N#Cc1cccc(COc2nc(O)c3ccncc3n2)c1 [Example 32, 3-[(4-hydroxypyrido[3,4-d]pyrimidin-2-yl)oxymethyl]benzonitrile]
≤ 0.1 | 1 to 10 | Cn1ccc(COc2nc(O)c3ccncc3n2)n1 [Example 33, 2-[(1-methylpyrazol-3-yl)methoxy]pyrido[3,4-d]pyrimidin-4-ol]
0.1 to 1 | ≤ 0.1 | Oc1nc(Oc2ccccc2)nc2cnccc12 [Example 34, 2-phenoxypyrido[3,4-d]pyrimidin-4-ol]
≤ 0.1 | 1 to 10 | Oc1nc(OCc2ccccc2C(F)(F)F)nc2cnccc12 [Example 177, 2-{[2-(trifluoromethyl)phenyl]methoxy}pyrido[3,4-d]pyrimidin-4-ol]
≤ 0.1 | 1 to 10 | Oc1nc(OCc2ccccc2F)nc2cnccc12 [Example 178, 2-[(2-fluorophenyl)methoxy]pyrido[3,4-d]pyrimidin-4-ol]
≤ 0.1 | 1 to 10 | Oc1nc(OCc2cccc(F)c2)nc2cnccc12 [Example 179, 2-[(3-fluorophenyl)methoxy]pyrido[3,4-d]pyrimidin-4-ol]
≤ 0.1 | 1 to 10 | Oc1nc(OCc2ccc(F)cc2)nc2cnccc12 [Example 180, 2-[(4-fluorophenyl)methoxy]pyrido[3,4-d]pyrimidin-4-ol]
≤ 0.1 | 1 to 10 | Oc1nc(OCc2cccc(F)c2F)nc2cnccc12 [Example 181, 2-[(2,3-difluorophenyl)methoxy]pyrido[3,4-d]pyrimidin-4-ol]

IC50 [1] [µM] | IC50 [2] [µM] | Compound
≤ 0.1 | 1 to 10 | Oc1nc(OCc2cc(F)ccc2F)nc2cnccc12 [Example 182, 2-[(2,5-difluorophenyl)methoxy]pyrido[3,4-d]pyrimidin-4-ol]
0.1 to 1 | 1 to 10 | Oc1nc(OCc2c(F)cccc2F)nc2cnccc12 [Example 183, 2-[(2,6-difluorophenyl)methoxy]pyrido[3,4-d]pyrimidin-4-ol]
0.1 to 1 | 1 to 10 | Oc1nc(OCc2cccc3ccccc23)nc2cnccc12 [Example 184, 2-(naphthalen-1-ylmethoxy)pyrido[3,4-d]pyrimidin-4-ol]
0.1 to 1 | 1 to 10 | Oc1nc(OCc2ccccc2-c2ccccc2)nc2cnccc12 [Example 185, 2-[(2-phenylphenyl)methoxy]pyrido[3,4-d]pyrimidin-4-ol]
0.1 to 1 | 1 to 10 | Oc1nc(OCc2cccc(-c3ccccc3)c2)nc2cnccc12 [Example 186, 2-[(3-phenylphenyl)methoxy]pyrido[3,4-d]pyrimidin-4-ol]
1 to 10 | 1 to 10 | Oc1nc(OCc2ccc3ccccc3c2)nc2cnccc12 [Example 187, 2-(naphthalen-2-ylmethoxy)pyrido[3,4-d]pyrimidin-4-ol]
≤ 0.1 | 0.1 to 1 | Oc1nc(OCC2CCCc3ccccc32)nc2cnccc12 (stereo not drawn) [Example 188, 2-(1,2,3,4-tetrahydronaphthalen-1-ylmethoxy)pyrido[3,4-d]pyrimidin-4-ol]
≤ 0.1 | 0.1 to 1 | Oc1nc(OC2Cc3ccccc3C2)nc2cnccc12 [Example 189, 2-(2,3-dihydro-1H-inden-2-yloxy)pyrido[3,4-d]pyrimidin-4-ol]
≤ 0.1 | 0.1 to 1 | Oc1nc(OCC2CCc3ccccc32)nc2cnccc12 (stereo not drawn) [Example 190, 2-(2,3-dihydro-1H-inden-1-ylmethoxy)pyrido[3,4-d]pyrimidin-4-ol]
≤ 0.1 | 0.1 to 1 | Oc1nc(OCC2CCc3ccccc3C2)nc2cnccc12 (stereo not drawn) [Example 191, 2-(1,2,3,4-tetrahydronaphthalen-2-ylmethoxy)pyrido[3,4-d]pyrimidin-4-ol]
1 to 10 | 1 to 10 | Oc1nc(OC2CCc3ccccc32)nc2cnccc12 (stereo not drawn) [Example 192, 2-(2,3-dihydro-1H-inden-1-yloxy)pyrido[3,4-d]pyrimidin-4-ol]
≤ 0.1 | 0.1 to 1 | Oc1nc(OCc2coc3ccccc23)nc2cnccc12 [Example 193, 2-(1-benzofuran-3-ylmethoxy)pyrido[3,4-d]pyrimidin-4-ol]
1 to 10 | 1 to 10 | Oc1nc(OCC2COc3ccccc32)nc2cnccc12 (stereo not drawn) [Example 194, 2-(2,3-dihydro-1-benzofuran-3-ylmethoxy)pyrido[3,4-d]pyrimidin-4-ol]
≤ 0.1 | 0.1 to 1 | Oc1nc(OCC2CCOc3ccccc32)nc2cnccc12 (stereo not drawn) [Example 195, 2-(3,4-dihydro-2H-1-benzopyran-4-ylmethoxy)pyrido[3,4-d]pyrimidin-4-ol]
1 to 10 | 1 to 10 | Oc1nc(OC2CCCc3ccccc32)nc2cnccc12 (stereo not drawn) [Example 196, 2-(1,2,3,4-tetrahydronaphthalen-1-yloxy)pyrido[3,4-d]pyrimidin-4-ol]
≤ 0.1 | 0.1 to 1 | Oc1nc(OC2CCOc3ccccc32)nc2cnccc12 (stereo not drawn) [Example 197, 2-(3,4-dihydro-2H-1-benzopyran-4-yloxy)pyrido[3,4-d]pyrimidin-4-ol]
0.1 to 1 | 0.1 to 1 | Cn1cnc(-c2nccc3c(=O)[nH]cnc23)c1 [Example 198, 8-(1-methylimidazol-4-yl)-3H-pyrido[3,4-d]pyrimidin-4-one]

Compound | IC50 [1] [µM] | IC50 [2] [µM]
CC(C)(O)CCOc1nc(O)c2ccncc2n1 [Example 24, 2-(3-hydroxy-3-methylbutoxy)pyrido[3,4-d]pyrimidin-4-ol] | 0.1 to 1 | ≤ 0.1
